Laboratory results from US4694069A, “Kibdelosporangium aridum SK&F-AAD-609” (SmithKline Beckman Corporation, priority 1985, dated 1987).

Legend:
[1] = system: mixed intestinal microflora (cecum fluid); assay: Swine in vitro model; conditions: one level, up to 166.67 ppm; 4-5 h
Protocol: A swine in vitro model was used to characterize AAD-609 antibiotics as potential feed additives in swine and poultry. Mixed intestinal microflora were obtained from ileally-cannulated pigs. Virginiamycin, carbadox, AAD-216 and its components, and AAD-609 Complex (containing less than 5% AAD-216 antibiotics) were tested at one level. […] Glucose (GLU) was spared from microbial degradation. Volatile fatty acids (TOTAL) were the major end-product of microbial metabolism while lactic acid production were reduced. […] Since AAD-609 and AAD-216 give similar in vitro results, it is expected that AAD-609 has similar growth-promoting activity in monogastric animals. Also, the in vitro activity of AAD-609 is similar to the activity previously observed with bacitracin in this model.
The swine in vitro model was carried out by incubating 1.5 ml of cecum fluid, from a swine fed normal rations, mixed with 1.5 ml of a nutrient broth (3 mg casein hydrolysate, 30 mg maltose, 1.25 mg urea, 0.5 mg lysine, and 30 mg cellobiose) and with up to 166.67 parts per million of a selected growth promotant at 39° C., with oscillation, for about 4-5 hours. Results, percentage of control, are reported in the following table in which all abbreviations are as above except that LLA means L-lactate and ETOH means ethanol.

[2] = system: rumen fermentation (strained rumen fluid); assay: Rumen in vitro model; set-up: species or system steer; conditions: for AAN (alpha amino nitrogen) / AMO (ammonia nitrogen) / LYS (lysine): 6 h; for % PR (percent propionate) / ACE (acetate) / BUT (butyrate) / ETOH (ethanol) / IBU (isobutyrate) / IVA (isovalerate) / PRO (propionate) / TOTAL (total volatile fatty acids) / VAL: 24 h
Protocol: The AAD-609 antibiotics were characterized in a rumen in vitro model to assess their potential as feed additives for ruminants. […] Specifically, strained rumen fluid (10 ml) obtained from a fistulated steer receiving a roughage ration, was mixed with 10 ml of nutrient broth (20 mg casein hydrolysate, 100 mg maltose, 15 mg urea, 400 mg solka floc (cellulose), 100 mg cellobiose and 100 mg starch) and with a selected growth promotant and incubated at 39° C., with oscillation, for 24 hours. […] Measurement of AMO, LYS and AAN was done with a sample taken from the incubation flask after 6 hours.

## COC(=O)N/N=C/c1c[n+]([O-])c2ccccc2[n+]1[O-] [Carbadox, carbadox]
[1]
  % PR (percent propionate): 38 % of control
  ACE (acetate): 47 % of control
  BUT (butyrate): 46 % of control
  ETOH (ethanol): 62 % of control
  GLU (glucose): 138 % of control
  IBU (isobutyrate): 0 % of control
  IVA (isovalerate): 0 % of control
  LLA (L-lactate): 9 % of control
  LYS (lysine): 79 % of control
  PRO (propionate): 11 % of control
  TOTAL (total volatile fatty acids): 30 % of control
  VAL: 0 % of control

## CC[C@@]1([C@@H]2O[C@@H]([C@H]3O[C@@](O)(CO)[C@H](C)C[C@@H]3C)C[C@@H]2C)CC[C@H]([C@]2(C)CC[C@]3(C[C@H](O)[C@@H](C)[C@@H]([C@@H](C)[C@@H](OC)[C@H](C)C(=O)O)O3)O2)O1 [Monensin, monensin]
[2]; 0.50 ppm
  AAN (alpha amino nitrogen): 117 % of control
  AMO (ammonia nitrogen): 103 % of control
  LYS (lysine): 78 % of control
  % PR (percent propionate): 131 % of control
  ACE (acetate): 100 % of control
  BUT (butyrate): 92 % of control
  ETOH (ethanol): 0 % of control
  IBU (isobutyrate): 112 % of control
  IVA (isovalerate): 150 % of control
  PRO (propionate): 141 % of control
  TOTAL (total volatile fatty acids): 108 % of control
  VAL: 100 % of control
[2]; 5.00 ppm
  AAN (alpha amino nitrogen): 185 % of control
  AMO (ammonia nitrogen): 101 % of control
  LYS (lysine): 144 % of control
  % PR (percent propionate): 189 % of control
  ACE (acetate): 101 % of control
  BUT (butyrate): 61 % of control
  ETOH (ethanol): 0 % of control
  IBU (isobutyrate): 84 % of control
  IVA (isovalerate): 103 % of control
  PRO (propionate): 208 % of control
  TOTAL (total volatile fatty acids): 110 % of control
[2]; 50.00 ppm
  AAN (alpha amino nitrogen): 248 % of control
  AMO (ammonia nitrogen): 101 % of control
  LYS (lysine): 186 % of control
  ACE (acetate): 96 % of control
  BUT (butyrate): 53 % of control
  ETOH (ethanol): 0 % of control
  IBU (isobutyrate): 123 % of control
  IVA (isovalerate): 132 % of control
  PRO (propionate): 258 % of control
  TOTAL (total volatile fatty acids): 117 % of control
  VAL: 81 % of control

## avoparcin
[2]; 0.50 ppm
  AAN (alpha amino nitrogen): 99 % of control
  AMO (ammonia nitrogen): 93 % of control
  LYS (lysine): 120 % of control
  % PR (percent propionate): 102 % of control
  ACE (acetate): 100 % of control
  BUT (butyrate): 103 % of control
  ETOH (ethanol): 0 % of control
  IBU (isobutyrate): 91 % of control
  IVA (isovalerate): 97 % of control
  PRO (propionate): 104 % of control
  TOTAL (total volatile fatty acids): 102 % of control
  VAL: 103 % of control
[2]; 5.00 ppm
  AAN (alpha amino nitrogen): 120 % of control
  AMO (ammonia nitrogen): 97 % of control
  LYS (lysine): 150 % of control
  % PR (percent propionate): 123 % of control
  ACE (acetate): 94 % of control
  BUT (butyrate): 82 % of control
  ETOH (ethanol): 0 % of control
  IBU (isobutyrate): 103 % of control
  IVA (isovalerate): 94 % of control
  PRO (propionate): 116 % of control
  TOTAL (total volatile fatty acids): 94 % of control
  VAL: 73 % of control
[2]; 50.00 ppm
  AAN (alpha amino nitrogen): 182 % of control
  AMO (ammonia nitrogen): 111 % of control
  LYS (lysine): 114 % of control
  % PR (percent propionate): 129 % of control
  ACE (acetate): 98 % of control
  BUT (butyrate): 90 % of control
  ETOH (ethanol): 0 % of control
  IBU (isobutyrate): 117 % of control
  IVA (isovalerate): 90 % of control
  PRO (propionate): 130 % of control
  TOTAL (total volatile fatty acids): 101 % of control
  VAL: 68 % of control
